Entries after “also recorded” stand apart in the source; their conditions may differ.

Experiment [1] deals with tetracycline-regulated transactivator protein tTA. In words: Hsp72 expression from adenovirus vector controlled by tetracycline-regulated transactivator in Rat-1 cells, immunoblot. It counts as cell-based. Particulars: 20 nM. An excerpt:
Recombinant adenovirus vector expressing Hsp72 (ADTR5Hsp72-GFP, curtesy of Dr. Mosser, Biotechnology Research Institute, Montreal) was constructed by cloning a dicistronic transcription unit encoding Hsp72 and Aequorea Victoria green fluorescent protein gene, separated by the encephalomyocarditis virus internal ribosome entry site from pTR-DC/Hsp70-GFP (Mosser et al., 1997a, Mol. Cell Biol, 17: 5317-5327; Mosser et al., 1997b, Biotechniques 22: 150-161) into an adenovirus transfer vector. Expression of this transcription unit is controlled by the tetracycline-regulated transactivator protein tTA (Mosser et al., 1997b, Biotechniques 22: 150-161) which we expressed from a separate recombinant adenovirus. Recombinant adenoviruses were generated by standard techniques as detailed by (Jani et al., 1997, J. Virol. Methods 64: 111-124). Viruses were used at stock concentration of 10^10 pfu/ml. […] Two-ml cell cultures grown in liquid medium in 35 mm dishes were infected in the presence or the absence of anhydrotetracycline with 3·10^7 pfu of each virus, sufficient for infection of almost 100% cells, and additional 10^7 pfu of each virus was added on days three and seven. After 24 hours incubation with viruses, cells were washed with PBS and placed in fresh media with or without anhydrotetracycline. […]

The test system of experiment [2] is JNK phosphatase(s). As to the kind of experiment: JNK inactivation (dephosphorylation) after heat shock in Hsp72-expressing MVH cells, immunoblot with antibody to phospho-JNK. Particulars: for JNK inactivation / JNK dephosphorylation in heat-shocked MVH cells: 0.5 mM added 1 hr after heat shock (45° C., 50 min), recovery at 37° C., JNK1 by phospho-JNK antibody; for JNK activity, drug alone: unstressed cells, vanadate alone. It counts as cell-based, rat. From the text: Another assay for JNK activity allowed us to measure separately activity of two major isoforms (46 kDa JNK1 and 54 kDa JNK2) using JNK antibody specific to activated (phosphorylated) form of JNK (Promega, Wis.). For immunoblot analysis samples were subjected to Western immunoblotting. Secondary antibodies conjugated with peroxidase were visualized with ECL substrates (Amersham, Arlington Heights, Ill.) and resulting films were quantified by densitometry. Measurement of JNK phosphatase activity. In vivo INK phosphatase activity was measured as described earlier (Meriin, A. B., et al., 1999, Mol. Cell Biol. (In press)). […] […] The rate of JNK dephosphorylation was assessed under these conditions by immunoblotting with antibody which recognizes the activated (phosphorylated) form of JNK specifically.

Experiment [3] deals with MVH cells. In words: Apoptosis by Hoechst-33342 staining in MVH cells (Rat-1 variant constitutively expressing Hsp72). It counts as cell-based. Particulars: heat shock 45° C., 50 min, 0.5 mM, apoptosis assessed 7 hr after treatment. Here is the method: The level of apoptosis was measured by fluorescent microscopy using Hoechst-33342 DNA-specific dye (10 μM). Shrinked cells with condensed or fragmented nuclei were counted as apoptotic. Cells were washed twice with PBS on a dish, aspirated and lysed by thoroughly scraping with a plastic scraper in 200 μL lysis buffer per a 35 mm dish (40 mM HEPES, pH 7.5; 50 mM KCl; […]; 2 mM DTT, 1 mM Na3VO4; 50 mM β-glycerophosphate; 50 mM NaF; 5 mM EDTA; 5 mM EGTA; 1 mM PMSF; 1 mM benzamedine; 5 μg/ml of each: leupeptine, pepstatine A, aprotenin). The lysates were clarified by centrifugation in a microcentrifuge at 15,000 rpm for 5 min. Total protein concentration was measured in the supernatants after which they were diluted with the lysis buffer to achieve equivalent concentration in all samples. All procedures were performed at 4° C.

For experiment [4], the system named is JNK phosphatase(s). Particulars: various cell lines; cited from earlier work.

Regarding `Cc1c2c(c(O)c3c(O)cccc13)C(=O)[C@]1(O)C(=O)C(C(N)=O)=C(O)[C@@H](N(C)C)[C@@H]1C2` [anhydrotetracycline], the “Hsp72 expression after infection with both adenoviruses” value in experiment [1] is given as “expression of Hsp72 in the absence of tetracycline but not in the presence of 20 nM of anhydrotetracycline”.
For `[O]=[V]([O-])([O-])[O-]` [ortho-vanadate], the “JNK inactivation / JNK dephosphorylation in heat-shocked MVH cells” value in experiment [2] is “strongly inhibited JNK inactivation”; in experiment [2] (listed as Ortho-vanadate), “inhibits JNK dephosphorylation”. For the same compound, the “JNK activity, drug alone” value in experiment [2] (listed as Ortho-vanadate) was “no significant effect on JNK activity”; in experiment [2] (listed as vanadate), “affected neither JNK activity”. Further, the “heat-induced apoptosis of MVH cells (thermoresistance, anti-apoptotic effect of Hsp72)” value in experiment [3] (listed as Ortho-vanadate) was “abolishes thermoresistance”; in experiment [3] (listed as vanadate), “completely reversed anti-apoptotic effect of Hsp72; also recorded: dramatically increased”. For the same compound, in experiment [4], the “suppression of JNK phosphatase(s)” value is given as “effectively suppresses JNK phosphatase(s)”.

Source of the values: US6960430B2, “Screening methods for compounds useful in the regulation of cell proliferation” (priority 1999, dated 2005).
